Assay results from US8486931B2, “Substituted oxindole compounds” (Abbott GmbH & Co. KG, priority 2007, dated 2013).

What follows are compounds tested against T1, human vasopressin V1b receptor (Homo sapiens, UniProt P47901) (assay: Vasopressin V1b receptor binding assay). Details: membranes from CHO-K1 cells with stably expressed human V1b receptors, 1.5 nM 3H-AVP displacement; with more than one stereogenic center: the diastereomer with stronger affinity.
T1 construct: expressed in transfected cells; host or cells: CHO-K1 (cell line hV1b-3H2_CHO), membrane preparation
T1 sequence (P47901 1-424): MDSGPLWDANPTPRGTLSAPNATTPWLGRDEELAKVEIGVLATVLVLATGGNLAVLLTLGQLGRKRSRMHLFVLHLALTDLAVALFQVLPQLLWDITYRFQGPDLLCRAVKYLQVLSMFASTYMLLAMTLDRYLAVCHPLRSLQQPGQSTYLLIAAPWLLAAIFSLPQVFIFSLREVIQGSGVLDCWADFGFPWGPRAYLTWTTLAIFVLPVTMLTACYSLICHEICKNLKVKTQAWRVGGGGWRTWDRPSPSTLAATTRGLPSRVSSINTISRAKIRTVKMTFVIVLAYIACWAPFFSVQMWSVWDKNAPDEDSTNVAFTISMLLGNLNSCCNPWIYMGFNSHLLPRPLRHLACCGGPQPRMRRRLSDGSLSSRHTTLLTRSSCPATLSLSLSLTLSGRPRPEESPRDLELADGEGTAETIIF
Description: Such compounds can be investigated in suitable assays which establish the affinity to a receptor, with the affinity constant Ki represening a measure of the potency of the compounds and a smaller value representing a larger potency. The compounds of the invention were tested in the following receptor binding assay for their affinity for the V1 b receptor.
Vasopressin V1 b Receptor Binding Assay:
The test substances were dissolved in a concentration of 10^−2 M in DMSO (dimethyl sulfoxide) and further diluted to 5×10^−4 M to 5×10^−9 M in DMSO. This series of DMSO predilutions was diluted 1:10 with assay buffer. The substance concentration was again diluted 1:5 in the assay mixture (2% DMSO in the mixture).
The membrane pellet was again homogenized and centrifuged as described and then taken up in 50 mM Tris-HCl, pH 7.4, homogenized and stored in aliquots frozen in liquid nitrogen at −190° C.
The incubation buffer was: 50 mM Tris, 10 mM MgCl2, 0.1% BSA, pH 7.4.
The nonspecific binding was determined with 1 μM AVP (Bachem #H1780). All determinations were carried out as triplicate determinations. After incubation (60 minutes at room temperature), the free radioligand was removed by vacuum filtration (Skatron cell harvester 7000) through Whatman GF/B glass fiber filter mats, and the filters were transferred into scintillation vials. The liquid scintillation measurement took place in a Tricarb model 2000 or 2200CA instrument (Packard). Conversion of the measured cpm into dpm was carried out with the aid of a standard quench series.
The binding parameters were calculated by nonlinear regression in SAS.
The above assay was used to measure the affinities of the compounds of the invention for the human vasopressin V1 b receptor and to determine with affinity constants (Ki).

Row | Ki | SMILES
1 | < 0.01 µM | CCOc1ccccc1C1(N2CCN(c3ccncc3)CC2)C(=O)N(S(=O)(=O)c2ccc(OC)c3cccnc23)c2ccc(C#N)cc21 (racemic) [Example 25, (±)-5-Cyano-3-(2-ethoxyphenyl)-1-(5-methoxyquinoline-8-sulfonyl)-3-(4-pyridin-4-yl-piperazin-1-yl)-2,3-dihydro-1H-indol-2-one]
2 | 0.01 to 0.05 µM | CCOc1ccccc1C1(N2CCN(c3ccncc3)CC2)C(=O)N(S(=O)(=O)c2ccc(F)c3cccnc23)c2ccc(C#N)cc21 (racemic) [Example 26, (±)-5-Cyano-3-(2-ethoxyphenyl)-1-(5-fluoroquinoline-8-sulfonyl)-3-(4-pyridin-4-yl-piperazin-1-yl)-2,3-dihydro-1H-indol-2-one]
3 | 0.01 to 0.05 µM | CCOc1nc(Cl)ccc1C1(N2CCN(c3ccnc(C)c3)CC2)C(=O)N(S(=O)(=O)c2cccc3cccnc23)c2ccc(C#N)cc21 (racemic) [Example 27, (±)-5-Cyano-3-(6-chloro-2-ethoxypyridin-3-yl)-3-[4-(2-methylpyridin-4-yl)-piperazin-1-yl]-1-(quinoline-8-sulfonyl)-2,3-dihydro-1H-indol-2-one]
4 | 0.01 to 0.05 µM | CCOc1nc(Cl)ccc1C1(N2CCN(c3ccncc3)CC2)C(=O)N(S(=O)(=O)c2ccc(OC)cc2OC)c2ccc(C#N)cc21 (racemic) [Example 29, (±)-5-Cyano-3-(6-chloro-2-ethoxypyridin-3-yl)-1-(2,4-dimethoxybenzenesulfonyl)-3-(4-pyridin-4-ylpiperazin-1-yl)-2,3-dihydro-1H-indol-2-one]
5 | 0.01 to 0.05 µM | CCOc1nc(Cl)ccc1C1(N2CCN(c3ccncc3)CC2)C(=O)N(S(=O)(=O)c2cccc3c(C)ccnc23)c2ccc(C#N)cc21 (racemic) [Example 30, (±)-5-Cyano-3-(6-chloro-2-ethoxypyridin-3-yl)-1-(4-methylquinoline-8-sulfonyl)-3-(4-pyridin-4-ylpiperazin-1-yl)-2,3-dihydro-1H-indol-2-one]
6 | 0.01 to 0.05 µM | CCOc1cc(F)ccc1C1(N2CCN(c3ccncc3)CC2)C(=O)N(S(=O)(=O)c2ccc(OC)c3cccnc23)c2ccc(C#N)cc21 (racemic) [Example 31, (±)-5-Cyano-3-(2-ethoxy-4-fluorophenyl)-1-(5-methoxyquinoline-8-sulfonyl)-3-(4-pyridin-4-ylpiperazin-1-yl)-2,3-dihydro-1H-indol-2-one]
7 | < 0.01 µM | CCOc1cc(F)ccc1C1(N2CCN(c3ccncc3)CC2)C(=O)N(S(=O)(=O)c2ccc(OC)cn2)c2ccc(C#N)cc21 (racemic) [Example 32, (±)-5-Cyano-3-(2-ethoxy-4-fluorophenyl)-1-(5-methoxypyridine-2-sulfonyl)-3-(4-pyridin-4-ylpiperazin-1-yl)-2,3-dihydro-1H-indol-2-one]
8 | < 0.01 µM | CCOc1ccc(OC)cc1C1(N2CCN(c3ccnc(C)c3)CC2)C(=O)N(S(=O)(=O)c2ccc(OC)c3cccnc23)c2ccc(C#N)cc21 (racemic) [Example 33, (±)-5-Cyano-3-(2-ethoxy-5-methoxyphenyl)-1-(5-methoxyquinoline-8-sulfonyl)-3-[4-(2-methylpyridin-4-yl)piperazin-1-yl]-2,3-dihydro-1H-indol-2-one]
9 | < 0.01 µM | CCOc1nc(Cl)ccc1C1(N2CCN(c3ccnc(C)c3)CC2)C(=O)N(S(=O)(=O)c2ccc(OC)cn2)c2ccc(C#N)cc21 (racemic) [Example 34, (±)-5-Cyano-3-(6-chloro-2-ethoxypyridin-3-yl)-1-(5-methoxypyridine-2-sulfonyl)-3-[4-(2-methylpyridin-4-yl)piperazin-1-yl]-2,3-dihydro-1H-indol-2-one]
10 | < 0.01 µM | CCOc1ccc(OC)cc1C1(N2CCN(c3ccnc(C)c3)CC2)C(=O)N(S(=O)(=O)c2ccc(OC)cn2)c2ccc(C#N)cc21 (racemic) [Example 35, (±)-5-Cyano-3-(2-ethoxy-5-methoxyphenyl)-1-(5-methoxypyridine-2-sulfonyl)-3-[4-(2-methylpyridin-4-yl)piperazin-1-yl]-2,3-dihydro-1H-indol-2-one]
11 | < 0.01 µM | CCOc1nc(Cl)ccc1C1(N2CCN(c3ccncc3)CC2)C(=O)N(S(=O)(=O)c2ccc(OC)cn2)c2ccc(C#N)cc21 (racemic) [Example 36, (±)-5-Cyano-3-(6-chloro-2-ethoxypyridin-3-yl)-1-(5-methoxypyridine-2-sulfonyl)-3-(4-pyridin-4-ylpiperazin-1-yl)-2,3-dihydro-1H-indol-2-one]
12 | < 0.01 µM | COc1ccccc1C1(N2CCN(c3ccncc3)CC2)C(=O)N(S(=O)(=O)c2cccc3cccnc23)c2ccc(Cl)cc21 (racemic) [Example 37, (±)-5-Chloro-3-(2-methoxyphenyl)-3-(4-pyridin-4-ylpiperazin-1-yl)-1-(quinoline-8-sulfonyl)-1,3-dihydroindol-2-one]
13 | 0.01 to 0.05 µM | CCOc1ccccc1C1(N2CCN(c3ccncc3)CC2)C(=O)N(S(=O)(=O)c2cccc3cccnc23)c2ccc(C#N)cc21 (racemic) [Example 38, (±)-5-Cyano-3-(2-ethoxyphenyl)-3-(4-pyridin-4-ylpiperazin-1-yl)-1-(quinoline-8-sulfonyl)-2,3-dihydro-1H-indol-2-one]
14 | 0.01 to 0.05 µM | COc1ccccc1C1(N2CCN(c3ccncc3)CC2)C(=O)N(S(=O)(=O)c2cccc3cccnc23)c2cc(C)ccc21 (racemic) [Example 39, (±)-3-(2-Methoxyphenyl)-6-methyl-3-(4-pyridin-4-ylpiperazin-1-yl)-1-(quinoline-8-sulfonyl)-1,3-dihydroindol-2-one]
15 | 0.01 to 0.05 µM | COc1ccc(CN(C)C)cc1C1(N2CCN(c3ccncc3)CC2)C(=O)N(S(=O)(=O)c2cccc3cccnc23)c2ccc(Cl)cc21 (racemic) [Example 41, (±)-5-Chloro-3-(5-dimethylaminomethyl-2-methoxyphenyl)-3-(4-pyridin-4-ylpiperazin-1-yl)-1-(quinoline-8-sulfonyl)-1,3-dihydroindol-2-one]
16 | 0.01 to 0.05 µM | COc1ncccc1C1(N2CCN(c3ccncc3)CC2)C(=O)N(S(=O)(=O)c2cccc3cccnc23)c2ccc(Cl)cc21 (racemic) [Example 42, (±)-5-Chloro-3-(2-methoxypyridin-3-yl)-3-(4-pyridin-4-ylpiperazin-1-yl)-1-(quinoline-8-sulfonyl)-1,3-dihydroindol-2-one]
17 | 0.01 to 0.05 µM | COc1ccccc1C1(N2CCN(c3ccncc3)CC2)C(=O)N(S(=O)(=O)c2cccc3cccnc23)c2ccc(C#N)cc21 (racemic) [Example 43, (±)-5-Cyano-3-(2-methoxyphenyl)-3-(4-pyridin-4-ylpiperazin-1-yl)-1-(quinoline-8-sulfonyl)-2,3-dihydro-1H-indol-2-one]
18 | 0.01 to 0.05 µM | CCOc1ccccc1C1(N2CCN(c3ccnc(C)c3)CC2)C(=O)N(S(=O)(=O)c2cccc3cccnc23)c2ccc(C#N)cc21 (racemic) [Example 44, (±)-5-Cyano-3-(2-ethoxyphenyl)-3-[4-(2-methylpyridin-4-yl)piperazin-1-yl]-1-(quinoline-8-sulfonyl)-2,3-dihydro-1H-indol-2-one]
19 | 0.01 to 0.05 µM | CCOc1cc(F)ccc1C1(N2CCN(c3ccncc3)CC2)C(=O)N(S(=O)(=O)c2cccc3cccnc23)c2ccc(C#N)cc21 (racemic) [Example 46, (±)-5-Cyano-3-(2-ethoxy-4-fluorophenyl)-3-(4-pyridin-4-ylpiperazin-1-yl)-1-(quinoline-8-sulfonyl)-2,3-dihydro-1H-indol-2-one]
20 | < 0.01 µM | CCOc1ccc(OC)cc1C1(N2CCN(c3ccncc3)CC2)C(=O)N(S(=O)(=O)c2ccc(C)cn2)c2ccc(C#N)cc21 (racemic) [Example 47, (±)-5-Cyano-3-(2-ethoxy-5-methoxyphenyl)-1-(5-methylpyridine-2-sulfonyl)-3-(4-pyridin-4-ylpiperazin-1-yl)-2,3-dihydro-1H-indol-2-one]
21 | 0.01 to 0.05 µM | CCOc1ccc(OC)cc1C1(N2CCN(c3ccncc3)CC2)C(=O)N(S(=O)(=O)c2ccc(Cl)c3cccnc23)c2ccc(C#N)cc21 (racemic) [Example 48, (±)-5-Cyano-1-(5-chloroquinoline-8-sulfonyl)-3-(2-ethoxy-5-methoxyphenyl)-3-(4-pyridin-4-ylpiperazin-1-yl)-2,3-dihydro-1H-indol-2-one]
22 | 0.01 to 0.05 µM | CCOc1cc(F)ccc1C1(N2CCN(c3ccncc3)CC2)C(=O)N(S(=O)(=O)c2ccc(C)cn2)c2ccc(C#N)cc21 (racemic) [Example 49, (±)-5-Cyano-3-(2-ethoxy-4-fluorophenyl)-1-(5-methylpyridine-2-sulfonyl)-3-(4-pyridin-4-ylpiperazin-1-yl)-2,3-dihydro-1H-indol-2-one]
